In patent publication EP1914236A1 (Ortho-McNeil Pharmaceutical, Inc., priority 2002, dated 2003):

Columns and labels:
CHO-hB2 cell membranes = molecular target: T1, CHO-hB2 cell membranes (Homo sapiens, UniProt P30411); assay: [35S]GTPγS Binding Assay in CHO-hB2 Cell Membranes; format: biochemical; conditions: for Functional Activity: word part of the cell, effect on bradykinin-stimulated [35S]GTPγS binding; for Functional Activity (% Basal): number in parentheses, bradykinin-stimulated [35S]GTPγS binding, test concentration not given
T1 construct: purchased Receptor Biology, Inc. (Baltimore, MD); host or cells: CHO-hB2 cells (membranes)
T1 sequence (P30411 1-391): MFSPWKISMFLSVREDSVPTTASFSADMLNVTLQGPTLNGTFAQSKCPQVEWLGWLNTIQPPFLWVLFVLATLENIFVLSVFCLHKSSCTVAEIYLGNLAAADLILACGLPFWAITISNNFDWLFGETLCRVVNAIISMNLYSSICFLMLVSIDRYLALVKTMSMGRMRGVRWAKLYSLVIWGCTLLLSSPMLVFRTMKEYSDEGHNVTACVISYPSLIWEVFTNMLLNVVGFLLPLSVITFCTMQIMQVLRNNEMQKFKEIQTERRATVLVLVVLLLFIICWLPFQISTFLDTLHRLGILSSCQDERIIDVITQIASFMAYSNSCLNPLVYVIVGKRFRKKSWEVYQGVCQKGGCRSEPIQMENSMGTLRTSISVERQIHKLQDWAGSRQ
Description: CHO-hB2 cell membranes were purchased from Receptor Biology, Inc. (Baltimore,MD). 10 mg/mL of membrane protein was suspended in 10 mM TRIS-HC pH 7.2, 2 mM EDTA, 10% sucrose.
Membranes were added into 15 mL ice cold binding assay buffer. The assay buffer contained 50 mM HEPES, pH 7.6, 5 mM MgCl2, 100 mM NaCl, 1 mM DTT and 1 mM EDTA. The membrane suspension was homogenized twice with a Polytron and centrifuged at 3000 rpm for 10 min. The supernatant was then centrifuged at 18,000 rpm for 20 min. The pellet was saved in a tube and resuspended.
The pellet membranes (40 µg/mL) were preincubated with SPA (scintillation proximity assay) beads (20 mg/mL) at 25C° for 45 min in the assay buffer. The SPA beads (5 mg/mL) coupled with membranes (10 µg/mL) were then incubated with 0.5 nM [^35S]GTPγS in the same HEPES buffer containing 50 µM GDP in total volume of 200 µL. Bradykinin was used to stimulate [^35S]GTPγS binding. Varying concentrations of drugs were incubated with bradykinin to inhibit bradykinin-stimulated [^35S]GTPγS binding. The basal binding was tested in the absence of bradykinin and no specific binding was tested in the present 10 µM unlabeled GTPγS. The radioactivity was quantified on a Packard Top Count, and calculated. % of Basal = (stimulated binding-non specific binding)/(basal binding-non specific binding) × 100. [formula]

[1] = molecular target: T2, human B2 bradykinin receptors (Homo sapiens, UniProt P30411); assay: Bradykinin B2 (BK2) Receptor Binding Assay; conditions: membranes of CHO-K1 cells transfected with human B2 bradykinin receptors; ~0.25 nM [3H]NPC17731; 60 min at 25°C
T2 construct: purchased Receptor Biology, Inc. (Baltimore, MD); host or cells: CHO-K1 cells transfected with the human B2 receptor (membranes)
T2 sequence (P30411 1-391): T1 sequence (P30411 1-391)
Description: Cell membranes of CHO-K1 cells transfected with human B2 bradykinin receptors (CH)-hB2) were purchased from Receptor Biology, Inc. (Baltimore,MD).
Samples were harvested on a Brandel Cell Harvester on to Wallac filtermat B sheets (96 sample format), and washed three times with 2 mL cold HEPES-buffer (10 mM, pH 7.5), and dried in a microwave oven.
The data were used to calculate either the % inhibition compared to control binding (when only a single concentration of test compound was evaluated) or a Ki value (when a range of concentrations were tested). Background was subtracted from mean cpm values and % inhibition was calculated as: [(total dpm-test compound dpm)/(total dpm-nonspecific dpm)]x100. Kd and Ki values were calculated using GraphPad PRISM data analysis program.

Row | SMILES | Functional Activity (CHO-hB2 cell membranes) | Ki [1] [µM] | Functional Activity (% Basal) (CHO-hB2 cell membranes)
1 | Cc1ccc2cccc(OCc3c(Cl)ccc(NC(=O)Cc4ccc(C(=O)c5ccc(C#N)cc5)n4C)c3Cl)c2n1 [Compound 15] | Weak antagonist | – | –
2 | Cc1ccc2cccc(OCc3c(Cl)ccc(N(C)C(=O)Cc4ccc(C(=O)c5ccc([N+](=O)[O-])cc5)n4C)c3Cl)c2n1 [Compound 63] | Antagonist | 0.178 | 33
3 | Cc1ccc2cccc(OCc3c(Cl)ccc(N(C)C(=O)Cc4cc(C(=O)c5ccc(C#N)cc5)n(C)c4)c3Cl)c2n1 [Compound 4, 2-[5-(4-Cyano-benzoyl)-1-methyl-1H-pyrrol-3-yl]-N-[2,4-dichloro-3-(2-methyl-quinolin-8-yloxymethyl)-phenyl]-N-methyl-acetamide] | Antagonist | 1.35 | 24
4 | Cc1ccc2cccc(OCc3c(Cl)ccc(N(C)C(=O)Cc4ccc(C(=O)CN5CCC(Cc6ccccc6)CC5)n4C)c3Cl)c2n1 [Compound 59] | No effect | 0.291 | 1
5 | Cc1ccc2cccc(OCc3c(Cl)ccc(N(C)C(=O)CCc4ccc(C(=O)c5cccnc5)n4C)c3Cl)c2n1 [Compound 85] | Antagonist | 0.015 | 65
6 | COc1ccc(C(=O)c2ccc(CC(=O)N(C)c3ccc(Cl)c(COc4cccc5ccc(C)nc45)c3Cl)n2C)cc1 [Compound 68] | Weak antagonist | 0.189 | 4
7 | CSc1ccc(C(=O)c2ccc(CC(=O)N(C)c3ccc(Cl)c(COc4cccc5ccc(C)nc45)c3Cl)n2C)cc1 [Compound 69] | Antagonist | 0.109 | 41
8 | Cc1ccc2cccc(OCc3c(Cl)ccc(N(C)C(=O)Cc4ccc(C(=O)c5ccccc5[N+](=O)[O-])n4C)c3Cl)c2n1 [Compound 66] | Antagonist | 0.169 | 35
9 | Cc1ccc2cccc(OCc3c(Cl)ccc(N(C)C(=O)Cc4ccc(C(=O)c5ccc(C#N)nc5)n4C)c3Cl)c2n1 [Compound 71] | Antagonist | 0.074 | 79
10 | Cc1ccc2cccc(OCc3c(Cl)ccc(N(C)C(=O)Cc4ccc(C(=O)c5ccc(C#N)cc5)n4CCC(C)C)c3Cl)c2n1 [Compound 13] | No effect | 0.044 | 1
11 | Cc1ccc2cccc(OCc3c(C)ccc(N(C)C(=O)CCc4ccc(C(=O)c5cccs5)n4C)c3C)c2n1 [Compound 80] | Weak antagonist | 0.141 | 12
12 | CC(=O)Nc1cccc(C(=O)c2ccc(CC(=O)N(C)c3ccc(Cl)c(COc4cccc5ccc(C)nc45)c3Cl)n2C)c1 [Compound 72] | Antagonist | 0.085 | 74
13 | Cc1ccc2cccc(OCc3c(C)ccc(N(C)C(=O)CCc4ccc(C(=O)c5ccncc5)n4C)c3C)c2n1 [Compound 82] | Antagonist | 0.45 | 50
14 | Cc1ccc2cccc(OCc3c(C)ccc(N(C)C(=O)CCc4ccc(C(=O)c5cccnc5)n4C)c3C)c2n1 [Compound 84] | Antagonist | 0.304 | 57
15 | Cc1ccc2cccc(OCc3c(Cl)cc(Cl)c(N(C)C(=O)Cc4ccc(C(=O)c5ccc(Cl)nc5)n4C)c3Cl)c2n1 [Compound 117, 2-[5-(6-Chloro-pyridine-3-carbonyl)-1-methyl-1H-pyrrol-2-yl]-N-methyl-N-[2,4,6-trichloro-3-(2-methyl-quinolin-8-yloxymethyl)-phenyl]-acetamide] | Antagonist | 0.0864 | 35
16 | Cc1ccc2cccc(OCc3c(Cl)ccc(N(C)C(=O)Cc4ccc(C(=O)c5ccc([S+](C)[O-])cc5)n4C)c3Cl)c2n1 (stereo not shown) [Compound 73, N-[2,4-Dichloro-3-(2-methyl-quinolin-8-yloxymethyl)-phenyl]-2-[5-(4-methanesuifinyl-benzoyl)-1-methyl-1H-pyrrol-2-yl]-N-methyl-acetamide] | Antagonist | 0.064 | 78
17 | Cc1ccc2cccc(OCc3c(Cl)ccc(N(C)C(=O)Cc4ccc(C(=O)CN5CCC(c6ccccc6)CC5)n4C)c3Cl)c2n1 [Compound 58, N-[2,4-Dichloro-3-(2-methyl-quinolin-8-yloxymethyl)-phenyl]-N-methyl-2-{1-methyl-5-[2-(4-phenyl-piperidin-1-yl)-acetyl]-1H-pyrrol-2-yl}-acetamide] | No effect | 0.293 | 1
18 | CCCCn1c(CC(=O)N(C)c2ccc(Cl)c(COc3cccc4ccc(C)nc34)c2Cl)ccc1C(=O)c1ccc(C#N)cc1 [Compound 10] | No effect | 0.029 | 1
19 | COc1ccc(C(=O)c2ccc(CC(=O)N(C)c3ccc(Cl)c(COc4cccc5ccc(C)nc45)c3Cl)[nH]2)cc1 [Compound 5] | Antagonist | 0.071 | 61
20 | CCCn1c(CC(=O)N(C)c2ccc(Cl)c(COc3cccc4ccc(C)nc34)c2Cl)ccc1C(=O)c1ccc(C#N)cc1 [Compound 9] | No effect | 0.027 | 1
21 | CCN(C(=O)Cc1ccc(C(=O)c2ccc(C#N)cc2)n1C)c1ccc(Cl)c(COc2cccc3ccc(C)nc23)c1Cl [Compound 18] | No effect | 0.055 | 1
22 | Cc1ccc2cccc(OCc3c(Cl)ccc(N(C)C(=O)Cc4ccc(C(=O)c5ccc([N+](=O)[O-])c(C)c5)n4C)c3Cl)c2n1 [Compound 65, N-[2,4-Dichloro-3-(2-methyl-quinolin-8-yloxymethyl)-phenyl]-N-methyl-2-[1-methyl-5-(3-methyl-4-nitro-benzoyl)-1H-pyrrol-2-yl]-acetamide] | Antagonist | 0.151 | 35
23 | CC(=O)Nc1ccc(C=CC(=O)NC[C@H]2CCCN2c2ccc(C)c(COc3cccc4ccc(C)nc34)c2C)cn1 [Compound 112, 3-(6-Acetytamino-pyridin-3-yl)-N-{1-[2,4-dimethyl-3-(2-methyl-quinolin-8-yloxymethyl)-phenyl]-pyrrolidin-2-(R)ylmethyl}-acrylamide.] | Antagonist | 0.054 | 59
24 | Cc1ccc2cccc(OCc3c(Cl)ccc(N(C)C(=O)Cc4ccc(C(=O)c5cccs5)n4C)c3Cl)c2n1 [Compound 61] | Weak antagonist | 0.393 | 12
25 | Cc1ccc2cccc(OCc3c(Cl)ccc(N(C)C(=O)Cc4ccc(C(=O)c5ccc(C#N)cc5)n4CC(C)C)c3Cl)c2n1 [Compound 12] | No effect | 0.054 | 1
26 | COC(=O)c1ccc(C(=O)c2ccc(CC(=O)N(C)c3ccc(Cl)c(COc4cccc5ccc(C)nc45)c3Cl)n2C)cc1 [Compound 64] | Antagonist | 0.161 | 45
27 | Cc1ccc2cccc(OCc3c(Cl)ccc(N(C)C(=O)CCc4ccc(C(=O)c5cccs5)n4C)c3Cl)c2n1 [Compound 81] | No effect | 0.304 | 1
